Laboratory results reported in US10906946B2, “Thrombin inhibitors” (priority 2015, dated 2021).
Where two headings read alike, the source gives them in different places. Peptide text beside a SMILES is read from it.

Key:
[1] = system: other serine proteases (trypsin, fIXa, fXIa, fXa, chymotrypsin, tPA, fVIIa, plasmin, APC, kallikrein, urokinase, fXIIa); assay: Serine protease selectivity screen (amidolytic assays with chromogenic substrates); format: biochemical
Description: Avathrin was screened for its selectivity against 13 serine proteases including procoagulant, anticoagulant, fibrinolytic and classical serine proteases (thrombin, trypsin, fIXa, fXIa, fXa, chymotrypsin, tPA, fVIIa, plasmin, APC, kallikrien, urokinase and fXIIa). […]
Thrombin amidolytic activity assays for all peptides were performed in 96-wells microtiter plates in 50 mM Tris buffer (pH 7.4) containing 100 mM NaCl and 1 mg/ml bovine serum albumin. […] The rates of formation of p-nitroaniline were followed by measuring the absorbance at 405 nm for 10 min with a Tecan InfinitePro M200 microplate reader from Tecan (Männedorf, Switzerland). […] To measure the inhibitory constants, different concentrations of S2238 were used and the residual velocities were determined using the Morrison's tight binding equation. Inhibition of thrombin fibrinogenolytic activity of peptides were tested by measuring absorbance at 650 nm using a Sunrise microplate reader from Tecan (Männedorf, Switzerland) as described previously [Koh C Y, et al., J Biol Chem 282: 29101-13 (2007)]. […] Effects of avathrin on the amidolytic activities of these serine proteases were determined using respective chromogenic substrates. […]

clot-bound thrombin = clot-bound thrombin (Homo sapiens, UniProt P00734); assay: biochemical
Description: Clot-bound thrombin activity was tested using S2238. Briefly, fibrin clots were prepared by incubating 100 μL of 2 mg/mL fibrinogen (in 50 mM HEPES buffer, pH 7.5, 150 mM NaCl, 10 mg/mL CaCl2) with 100 μL 30 nM thrombin. After 2 h at 37° C., the clots were extensively washed with the same buffer. This washing was repeated after every three hours for a period of 24 hr. […] Chromogenic substrate, S2238 (final concentration 200 μM) was then added and the reaction mixture was incubated for 90 min at 37° C. Aliquots were taken, and substrate hydrolysis was estimated by end point reading at 405 nm, using a Tecan InfinitePro microplate reader. Experiments were performed in quadruplicate and percentage inhibition was plotted.

[2] = system: platelets (ADP-induced platelet aggregation); assay: Preservation of platelet function in blood tubes (Multiplate, ADP-induced platelet aggregation); format: cell-based, human (healthy volunteers); conditions: ADP agonist
Description: (§1) Individual peptides are dissolved in phosphate buffered saline to prepare 10× peptide solutions (ie. concentrations of peptides are 10 times higher than the final concentrations at which they are to be tested). 0.3 ml of the 10× peptide solutions are placed in blood tubes without any additives. Blood was drawn from healthy volunteers using syringes and immediately transferred to a 50 ml conical centrifuge tube (Falcon tube) before pipetting 2.7 ml of the blood into blood tubes with peptide solutions. Final concentrations of peptides are as stated in Table 5 and 6.
Blood tubes with various peptides at different concentrations were left standing at room temperature until tested at designated times. At different time points, tubes were inverted several times and blood samples were taken out for platelet aggregation tests using a Multiplate® Platelet aggregometer with adenosine diphosphate (ADP) as agonist according to manufacturer's recommended protocols.

thrombin = molecular target: T1, thrombin (Homo sapiens, UniProt P00734); assay: Inhibition of thrombin fibrinogenolytic activity (fibrinogen clotting time); format: biochemical
T1 construct: residues in the termini of the light chain; and in the autolysis loop and C-terminus of the heavy chain; purchased Chemo-Sero-Therapeutic Research Institute (Kaketsuken, Japan), as a gift, not bought
Description: Thrombin amidolytic activity assays for all peptides were performed in 96-wells microtiter plates in 50 mM Tris buffer (pH 7.4) containing 100 mM NaCl and 1 mg/ml bovine serum albumin. Typically, 100 μl of peptide and 100 μl of thrombin were pre-incubated for different durations before 100 μl of S2238 was added to the reaction wells. The rates of formation of p-nitroaniline were followed by measuring the absorbance at 405 nm for 10 min with a Tecan InfinitePro M200 microplate reader from Tecan (Männedorf, Switzerland). Dose-response curves were fitted using the GraphPad Prizm software (San Diego, Calif., USA) to calculate IC50 values and Hill coefficients. To measure the inhibitory constants, different concentrations of S2238 were used and the residual velocities were determined using the Morrison's tight binding equation. Inhibition of thrombin fibrinogenolytic activity of peptides were tested by measuring absorbance at 650 nm using a Sunrise microplate reader from Tecan (Männedorf, Switzerland) as described previously [Koh C Y, et al., J Biol Chem 282: 29101-13 (2007)]. The selectivity of avathrin was examined against 13 serine proteases (FIG. 5). Effects of avathrin on the amidolytic activities of these serine proteases were determined using respective chromogenic substrates. Cleavage of avathrin by thrombin. Avathrin (150 μM) was incubated with thrombin (5 μM), in 50 mM Tris buffer (pH 7.4) containing 150 mM NaCl and 1 mg/ml BSA. After different incubation times, reactions were quenched with 1% TFA (pH 1.8) and loaded onto a Jupiter Proteo column (4 μm, 90 Å, 100×1.0 mm) attached to a Dionex nano-HPLC system from Thermo Fisher Scientific (Waltham, Mass., USA) and eluted using an acetonitrile gradient with 0.05% TFA and 99.95% MilliQ water as eluent A and 0.05% TFA, 19.95% MilliQ water and 80% ACN as eluent B. Masses of all peaks were measured to identify cleavage products, which were subsequently quantified by integrating the peaks and calculating the area under the curves. To measure the effect of different pre-incubation times on the thrombin inhibitory activity, amidolytic assays were performed for various incubation times (up to 36 h).

blood = assay: Anti-coagulation effect of peptides in blood tubes (visual clot formation); design: species or system human (healthy volunteers); conditions: room temperature
Description: as §1
Blood tubes with various peptides at different concentrations were left standing at room temperature until tested at designated times. At different time points, tubes were inverted several times and visually inspected for insoluble materials as indications of clot formation.

[3] = system: FeCl3-induced carotid artery thrombosis; assay: Ferric chloride-induced carotid artery thrombosis model; format: in vivo, C57BL/6 male mice; conditions: mice, 10% FeCl3
Description: All animal experiments were carried out under protocol 041/12 approved by Institutional Animal Care and Use Committee, National University of Singapore. The ferric chloride induced carotid artery thrombosis model was performed as described previously [Eckly A, et al., J Thromb Haemost 9: 779-89 (2011)] with minor modifications. Typically, C57BL/6 male mice (9-11 weeks old, 24.5-27.5 g) were anesthetized with an intraperitoneal injection of ketamine (75 mg/kg) and medetomidine (1 mg/kg). 100 μL of different doses of avathrin were injected into the mice via tail vein. The right carotid artery was dissected using blunt dissection and a vascular injury was caused applying filter paper of 2 mm×2 mm saturated with FeCl3 on top of the carotid artery. After 3 min, the filter paper was removed and the vessel was washed with sterile normal saline. To determine the time to occlusion, a miniature Doppler flow probe (Transonic Systems Inc., Ithaca, N.Y., USA) was placed around the carotid artery and blood flow was recorded using a Transonic® flow meter from ADInstruments (Dunedin, New Zealand). The maximal time for monitoring the blood flow after injury was 30 min. Mice were euthanized by cervical dislocation immediately after the completion of the experiment and prior to recovery from anesthesia.

[4] = final concentration 75 micromolar
[5] = final concentration 150 micromolar
[6] = final concentration 300 micromolar

Row | SMILES | inhibition of other proteases ([1]; 100 μM avathrin) [%] | selectivity preference for thrombin ([1]; thrombin versus other serine proteases) | IC50 (clot-bound thrombin) [nM] | Multiplate AUC (U) ([2]; 1.5 h, peptide 150 μM) | Multiplate AUC (U) ([2]; 1.5 h, peptide 300 μM) | Multiplate AUC (U) ([2]; 4 h, peptide 150 μM) | Multiplate AUC (U) ([2]; 4 h, peptide 300 μM) | Multiplate AUC (U) ([2]; 24 h, peptide 150 μM) | Multiplate AUC (U) ([2]; 24 h, peptide 300 μM) | Multiplate AUC (U) ([2]; 48 h, peptide 300 μM) | effect on fibrinogen clotting time / thrombin fibrinogenolytic activity (thrombin) | effect on fibrinogen clotting time / thrombin fibrinogenolytic activity (thrombin; listed as avathrin) | Time to observe clot formation (blood; [4]) [h] | Time to observe clot formation (blood; [5]) [h] | Time to observe clot formation (blood; [6]) [h] | time to occlusion (TTO) ([3]; 3 mg/kg intravenously) [min] | time to occlusion (TTO) ([3]; 10 mg/kg intravenously) [min] | Multiplate AUC (U) ([2]; 48 h, peptide 150 μM) | Multiplate AUC (U) ([2]; 72 h, peptide 150 μM) | Multiplate AUC (U) ([2]; 72 h, peptide 300 μM)
1 | CC[C@H](C)[C@H](NC(=O)[C@H](CCCCN)NC(=O)[C@@H]1CCCN1C(=O)[C@@H](NC(=O)[C@H](C)NC(=O)[C@@H](NC(=O)[C@H](CCC(N)=O)NC(=O)[C@H](Cc1c[nH]cn1)NC(=O)CNC(=O)CNC(=O)[C@@H](N)CO)[C@@H](C)O)C(C)C)C(=O)N[C@@H](CO)C(=O)N[C@@H](CCCCN)C(=O)N[C@@H](CCC(N)=O)C(=O)NCC(=O)N[C@@H](CC(C)C)C(=O)NCC(=O)NCC(=O)N[C@@H](CC(=O)O)C(=O)N[C@@H](Cc1ccccc1)C(=O)N[C@@H](CCC(=O)O)C(=O)N[C@@H](CCC(=O)O)C(=O)N[C@H](C(=O)N1CCC[C@H]1C(=O)N[C@@H](CO)C(=O)N[C@@H](CC(=O)O)C(=O)N[C@@H](CCC(=O)O)C(=O)N[C@H](C(=O)N[C@H](C(=O)N[C@@H](CCC(=O)O)C(=O)O)[C@@H](C)CC)[C@@H](C)CC)[C@@H](C)CC [Avathrin] (H-SGGHQTAVPKISKQGLGGDFEEIPSDEIIE-OH; N-terminus and C-terminus assumed) | < 30 | at least four orders of magnitude | 1740 ± 350 | 60.9 | 62.4 | 53.6 | 46.8 | 55.8 | 43.3 | 3.5 | prolonged fibrinogen clotting time in a dose-dependent manner | prolonged fibrinogen clotting times in a dose dependent manner | 42 to 52 | 52 to 66 | 52 to 66 | 15.03 ± 3.23 | 22.51 ± 4.19 | – | – | –
2 | CC[C@H](C)[C@H](NC(=O)[C@H](C)NC(=O)[C@H](CC(=O)O)NC(=O)[C@H](CC(=O)O)NC(=O)[C@@H]1CCCN1C(=O)[C@@H](NC(=O)[C@H](CCC(=O)O)NC(=O)[C@H](CCC(=O)O)NC(=O)[C@H](Cc1ccccc1)NC(=O)[C@H](CC(=O)O)NC(=O)CNC(=O)[C@@H]1CCCN1C(=O)[C@@H]1CCCN1C(=O)[C@H](C)NC(=O)[C@@H](NC(=O)[C@H](CO)NC(=O)[C@H](Cc1ccc(O)cc1)NC(=O)[C@H](CCSC)NC(=O)[C@H](CCCCN)NC(=O)[C@@H]1CCCN1C(=O)[C@@H](NC(=O)[C@H](C)NC(=O)[C@H](CCCNC(=N)N)NC(=O)[C@@H](NC(=O)[C@H](C)NC(=O)[C@H](CCC(=O)O)NC(=O)[C@H](CC(=O)O)NC(=O)[C@@H](N)CO)C(C)C)[C@@H](C)CC)[C@@H](C)O)[C@@H](C)CC)C(=O)N[C@@H](CCC(=O)O)C(=O)N[C@@H](CCC(=O)O)C(=O)O [Ultravariegin] (H-SDEAVRAIPKMYSTAPPGDFEEIPDDAIEE-OH; N-terminus and C-terminus assumed) | – | – | – | 55.7 | 66.3 | 52 | 46.1 | 43.1 | 39.5 | 25.4 | prolonged fibrinogen clotting times in a dose dependent manner | – | 91 to 101 | 101 to 139 | 101 to 139 | – | – | 7.4 | 9.6 | 15.4
